The values below come from patent US9822124B2, “Bicyclic heteroaromatic carboxamide compounds useful as Pim kinase inhibitors” (Incyte Corporation, priority 2014, dated 2017).

Type in all cases: biochemical
The target in one experiment is Pim-1 (Homo sapiens (Human), UniProt P11309). The experiment can be described thus: Pim-1 kinase assay (AlphaScreen, Biotin-labeled BAD peptide substrate). As to conditions: 1 mM ATP; read-out: Pim1 IC50. In outline: (§1)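 Kinase reactions ran 1 h at 25° C, pH 7.5, with 0.05 μM biotin-BAD peptide, 1 mM ATP, and 2.5 μM Pim-1 or 1.25 μM Pim-3. EDTA stop buffer carried anti-phospho-Bad (Ser112) antibody plus streptavidin donor and Protein-A acceptor beads. AlphaScreen signal was read after 1 h in the dark.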
Chain of Pim-1 (P11309 whole entry): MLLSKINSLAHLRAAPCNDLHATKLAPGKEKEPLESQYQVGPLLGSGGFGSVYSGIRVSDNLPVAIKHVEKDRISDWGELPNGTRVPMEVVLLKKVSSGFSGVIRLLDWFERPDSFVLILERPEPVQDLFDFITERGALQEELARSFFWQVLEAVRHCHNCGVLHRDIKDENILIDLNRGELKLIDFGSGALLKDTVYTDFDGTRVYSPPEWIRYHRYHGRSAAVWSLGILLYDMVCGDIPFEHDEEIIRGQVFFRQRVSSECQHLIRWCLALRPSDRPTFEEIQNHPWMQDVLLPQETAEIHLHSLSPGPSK
Background: Bead proximity is the source of the signal in Alpha formats.

In another experiment the target is Pim-2 (Homo sapiens (Human), UniProt Q9P1W9). The experiment can be described thus: Pim-2 kinase assay (TR-FRET, Fluorescein-labeled CREBtide peptide substrate). As to conditions: 1 mM ATP; read-out: Pim2 IC50. The method, boiled down:
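Human Pim-2 (1 nM) phosphorylated 0.05 μM fluorescein-CREBtide with 1 mM ATP for 2 h at 25 °C in Tris buffer pH 7.5 containing MgCl2, DTT, BSA and Tween-20. Reactions were stopped with EDTA and Tb-anti-pSer133 antibody was added, and TR-FRET was read after 30 min.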
(In TR-FRET formats the signal depends on donor and acceptor labels being close together.)

The target in another experiment is Pim-3 (Homo sapiens (Human), UniProt Q86V86). As to the kind of experiment: Pim-3 kinase assay (AlphaScreen, Biotin-labeled BAD peptide substrate). As to conditions: 1 mM ATP; read-out: Pim3 IC50. In outline: as §1

pIC50: −log10 of the molar value.

Chain of Pim-2 (Q9P1W9 whole entry): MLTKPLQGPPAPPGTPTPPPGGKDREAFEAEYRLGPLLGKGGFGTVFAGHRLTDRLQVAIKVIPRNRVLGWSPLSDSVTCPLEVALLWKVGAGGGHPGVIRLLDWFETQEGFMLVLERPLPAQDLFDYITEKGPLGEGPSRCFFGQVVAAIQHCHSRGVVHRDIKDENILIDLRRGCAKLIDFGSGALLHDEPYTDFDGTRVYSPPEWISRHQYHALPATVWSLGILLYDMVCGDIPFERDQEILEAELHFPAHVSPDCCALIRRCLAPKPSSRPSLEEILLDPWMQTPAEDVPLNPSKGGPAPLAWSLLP

On to `COc1cc(F)c(-c2cc3nc(C(=O)Nc4cnccc4N4C[C@@H](N)[C@H](O)[C@@H](C)C4)ccc3s2)c(F)c1` [Example 45, N-(4-((3R,4R,5S)-3-Amino-4-hydroxy-5-methylpiperidin-1-yl)pyridin-3-yl)-2-(2,6-difluoro-4-methoxyphenyl)thieno[3,2-b]pyridine-5-carboxamide], for which the pIC50 (in general, the IC50 on a negative log10 scale, so that one unit is a factor of ten) at Pim-1 was not below 8.00; on Pim-2, 6.00 to 7.00; on Pim-3, not below 8.00.

As for `C[C@H]1CN(c2ccncc2NC(=O)c2ccc3cc([C@@H]4C[C@H]4c4ccccc4)oc3n2)C[C@@H](N)[C@@H]1O` [Example 71, N-(4-((3R,4R,5S)-3-Amino-4-hydroxy-5-methylpiperidin-1-yl)pyridin-3-yl)-2-((1R,2R)-2-phenylcyclopropyl)furo[2,3-b]pyridine-6-carboxamide], the pIC50 at Pim-1 was not below 8.00; on Pim-2, not below 7.00; on Pim-3 it was not below 8.00.

On to `COc1ccc(-c2cc3nc(C(=O)Nc4cnccc4N4C[C@@H](N)[C@H](O)[C@@H](C)C4)ccc3o2)cn1` [Example 7, N-(4-((3R,4R,5S)-3-Amino-4-hydroxy-5-methylpiperidin-1-yl)pyridin-3-yl)-2-(6-methoxypyridin-3-yl)furo[3,2-b]pyridine-5-carboxamide], for which the pIC50 at Pim-1 was not below 8.00; at Pim-2, less than 5.70; on Pim-3, not below 8.00.

As to `C[C@@H]1C[C@H]1c1cc2ccc(C(=O)Nc3cnccc3N3C[C@@H](N)[C@H](O)[C@@H](C)C3)nc2o1` (racemic) [Example 74, N-{4-[(3R,4R,5S)-3-Amino-4-hydroxy-5-methylpiperidin-1-yl]pyridin-3-yl}-2-(trans-2-methylcyclopropyl)furo[2,3-b]pyridine-6-carboxamide], the negative logarithm of the IC50 (pIC50) on Pim-1 was not below 8.00; on Pim-2, not below 7.00; at Pim-3 it was not below 8.00.

For the compound `CC(C)c1coc2ccc(C(=O)Nc3cnccc3[C@@H]3C[C@H](C)C[C@H](N)C3)nc12` [Example 68, N-{4-[(1R,3S,5S)-3-Amino-5-methylcyclohexyl]pyridin-3-yl}-3-isopropylfuro[3,2-b]pyridine-5-carboxamide], the pIC50 is not below 8.00 on Pim-1, not below 7.00 on Pim-2 and not below 8.00 on Pim-3.

Regarding `COc1cc(F)c(-c2cnn3ccc(C(=O)Nc4cnccc4[C@@H]4C[C@H](C)C[C@H](N)C4)nc23)c(F)c1` [Example 84, N-{4-[(1R,3S,5S)-3-Amino-5-methylcyclohexyl]pyridin-3-yl}-3-(2,6-difluoro-4-methoxyphenyl)pyrazolo[1,5-a]pyrimidine-5-carboxamide], the pIC50 is not below 8.00 on Pim-1, not below 7.00 at Pim-2 and not below 8.00 on Pim-3.

For `CC(C)c1cnn2ccc(C(=O)Nc3cnccc3[C@@H]3C[C@H](C)C[C@H](N)C3)nc12` [Example 82, N-{4-[(1R,3S,5S)-3-Amino-5-methylcyclohexyl]pyridin-3-yl}-3-isopropylpyrazolo[1,5-a]pyrimidine-5-carboxamide], the negative logarithm of the IC50 (pIC50) was not below 8.00 at Pim-1, 5.00 to 6.00 at Pim-2 and 7.30 to 8.00 at Pim-3.

For `CC(C)c1coc2ccc(C(=O)Nc3cnccc3N3C[C@H](C)C[C@H](N)C3)nc12` [Example 18, N-(4-((3S,5R)-3-Amino-5-methylpiperidin-1-yl)pyridin-3-yl)-3-isopropylfuro[3,2-b]pyridine-5-carboxamide], the pIC50 is not below 8.00 on Pim-1, not below 7.00 at Pim-2 and not below 8.00 on Pim-3.

Consider `COc1ccc(F)c(-c2coc3ccc(C(=O)Nc4cnccc4N4C[C@@H](N)[C@H](O)[C@@H](C)C4)nc23)c1F` [Example 13, N-(4-((3R,4R,5S)-3-Amino-4-hydroxy-5-methylpiperidin-1-yl)pyridin-3-yl)-3-(2,6-difluoro-3-methoxyphenyl)furo[3,2-b]pyridine-5-carboxamide], for which the pIC50 at Pim-1 is not below 8.00; on Pim-2 it was 6.00 to 7.00; on Pim-3, not below 8.00.
